According to patent US20180050018A1, “PERIPHERAL-ANTICHOLINERGIC MUSCARINIC AGONIST COMBINATION” (Chase Pharmaceuticals Corporation, priority 2015, published 2018):

Assays:
[1] = cited from earlier work
[2] = tested on: rats and monkeys; conditions: rats and monkeys (Schwarz 1999); cited from earlier work
[3] = oral and iontophoretic patch administration, with oxadiazole muscarinic agonists; cited from earlier work
[4] = tested on: Male Swiss mice; test: Dose-response to xanomeline in a mouse model of diarrhea (fecal pellet count); assay type: in vivo; conditions: xanomeline i.p. 0.3 to 30 mg/kg
Excerpt: Male Swiss mice (4-6 weeks old), N=10 per treatment group were used, and treated intra-peritoneally (i.p.) with either vehicle (vehicle group) or increasing doses of xanomeline, a representative muscarinic agonist. Mice were randomly assigned to one of two experimental groups (vehicle; or increasing doses of xanomeline). Each animal was identified by its group name, cage number, series (day) of experiment, and number (1 to 10) written with permanent ink on the tail. Mice were placed individually in cages without any bedding materials. During the experiment the number of fecal pellets were counted at different time-points, starting one hour before the time of the administration of the test compound (TO), as outlined below: • T-1 h to T0: counting of the accumulated fecal pellets excreted. • T0: administration of the test compound, • T0 to T+2 h: counting of the accumulated fecal pellets excreted, • T+2 h to T+4 h: counting of the accumulated fecal pellets excreted, The total number of fecal pellets for each mouse was counted over time. An analysis of variance (ANOVA) was performed on the results. Fisher's Protected Least Significant Difference was used for pairwise comparisons; p values <0.05 were considered significant. Grubbs' test (http (hypertext transfer protocol) www at graphpad.com/quickcalcs/Grubbs1.cfm) was used to detect outliers for each parameter in each experimental group.

[5] = tested on: Male Swiss mice; test: T-maze continuous alternation task (T-CAT) in mice; assay type: in vivo
Excerpt: Evaluation of Cognition with Oxybutynin and Xanomeline in the T-maze Alternation Task in Mice The T-maze continuous alternation task (T-CAT) is useful as model for studying compounds with cognitive enhancing properties. The T-maze consists of 2 choice arms and 1 start arm mounted to a square center. Manual doors are provided to close specific arms during the force choice alternation task. Male Swiss mice (4-6 weeks old), N=10 per treatment group were used, and were pre-treated with: • Oxybutynin at the dose that blocked fecal pellet excretion in Study 2 of Example 1. […] Mice were randomly assigned to one of the different experimental treatment groups. Each animal was identified by its group name, cage number, series (day) of experiment, and number (1 to 10) written with permanent ink on the tail. The T-maze apparatus is made of gray Plexiglas with a main stem (55 cm long×10 cm wide×20 cm high) and two arms (30 cm long×10 cm wide×20 cm high) positioned at 90 degree angle relative to the main stem. A start box (15 cm long×10 cm wide) is separated from the main stem by a guillotine door. Horizontal doors are also provided to close specific arms during the force choice alternation task.
The experimental protocol consisted of one single session, which started with 1 “forced-choice” trial, followed by 14 “free-choice” trials. In the first “forced-choice” trial, animals were confined for 5 seconds to the start arm and then were released while either the left or the right goal arm was blocked by the horizontal door. Animals then negotiated the maze, eventually entering the open goal arm, and returned to the start position. […]
The apparatus was cleaned between each animal using 40% ethanol. […] The percentage of alternation over the 14 free-choice trials was determined for each mouse and was used as an index of working memory performance. […] The drug-induced improvement of memory was calculated by setting the respective response of the saline/vehicle as 100% and that of the test group as 0% reversion. […]

[6] = tested on: patients with Alzheimer disease; conditions: cited from earlier work
[7] = tested on: Male Swiss mice; test: Antagonism of xanomeline-induced diarrhea in mice by oxybutynin (fecal pellet count); assay type: in vivo; conditions: oxybutynin i.p. 0.3 to 30 mg/kg, 30 minutes before xanomeline 30 mg/kg
Method: Male Swiss mice (4-6 weeks old), N=10 per treatment group were used. Animals were pretreated with i.p. oxybutynin (a representative peripheral muscarinic receptor antagonist) or vehicle; 30 minutes later animals were treated with xanomeline at a dose of 30 mg/kg that caused diarrhea (as determined in Experiment 1). The dose of oxybutynin ordinarily ranged from 0.3 to 30 mg/kg. Mice were placed individually in cages without any bedding materials. During the experiment the number of fecal pellets was counted at different time-points as outlined below: • T-1h to T0: counting of the accumulated fecal pellets excreted, • T0: administration of oxybutinin. • T30 min: administration of vehicle or xanomeline. • T 30 min to T 2.5 h: counting of accumulated fecal pellets excreted. • T+2.5 h to T+4.5 h: counting of accumulated fecal pellets excreted. The total number of fecal pellets for each mouse was counted over time. An analysis of variance (ANOVA) was performed on the results. Fisher's Protected Least Significant Difference was used for pairwise comparisons. The p value ≦0.05 were considered significant. Grubbs' test (http (hypertext transfer protocol) www at graphpad.com/quickcalcs/Grubbs1.cfm) was used to detect outliers for each parameter in each experimental group.

Compound: O=C(O[C@H]1C[C@H]2CC[C@@H](C1)[N+]21CCCC1)C(O)(c1ccccc1)c1ccccc1 [trospium chloride, Azoniaspiro [3β-benziloyloxy-(1α,5α)-nortropane-8,1′-pyrrolidine] chloride]
- average plasma half-life ([1]; absorbed amount): about 18 hours

Compound: CO/N=C/C1=CCCN(C)C1 [milameline, (E)-N-methoxy-1-(1-methyl-1,2,5,6-tetrahydropyridin-3-yl)methanimine]
- doses producing central cholinergic action relative to doses stimulating peripheral cholinergic receptors [2]: doses slightly lower than those stimulating peripheral cholinergic receptors

Compound: NC(=O)C(c1ccccc1)(c1ccccc1)[C@@H]1CCN(CCc2ccc3c(c2)CCO3)C1 [darifenacin]
- effectiveness relative to the other muscarinic antagonists [3]: less effective than the other muscarinic antagonists

Compound: O=C(O[C@H]1CN2CCC1CC2)N1CCc2ccccc2[C@@H]1c1ccccc1 [solifenacin succinate, (1S)-(3R)-1-azabicyclo [2.2.2] oct-3-yl 3,4-dihydro-1-phenyl-2(1H)-iso-quinolinecarboxylate]
- half-life (in words) ([1]; in vivo): long half-life

Compound: CCCCCCOc1nsnc1C1=CCCN(C)C1 [xanomeline, 3-(4-hexyloxy-1,2,5-thiadiazol-3-yl)-1-methyl-5,6-dihydro-2H-pyridine]
- diarrhea (number of fecal pellets excreted) [4]: dose-dependently causes diarrhea
- ability to perform the T-maze test at the higher dose ([5]; i.p. xanomeline, higher dose (dose that caused diarrhea)): animals were too sick to perform the test
- performance in the T-maze (percentage of alternation, working memory) ([5]; i.p. xanomeline, mice): dose-dependent increase in performance in the T-maze
- cognitive and behavioral symptoms compared to placebo ([6]; 6-month trial in Alzheimer disease patients (Bodick et al, 1997)): significantly improve cognitive and behavioral symptoms of Alzheimer disease
- discontinuation rate due to side effects ([6]; Alzheimer's patient population (Mirza et al. 2003)): higher than 50%
- side effects ([6]; bradycardia, gastro-intestinal distress, excessive salivation, sweating, Alzheimer disease patients): dose-dependent unacceptable side effects

Compound: CCN(CC)CC#CCOC(=O)C(O)(c1ccccc1)C1CCCCC1 (stereo not shown) [oxybutynin]
- antagonism of xanomeline-induced diarrhea [7]: dose-dependently antagonized the diarrhea induced by xanomeline
- ability to perform the T-maze test after pretreatment ([5]; i.p. oxybutynin pretreatment 30 minutes before xanomeline): restored the animals' ability to perform the T-maze test
- effectiveness relative to the other muscarinic antagonists [3]: less effective than the other muscarinic antagonists
